According to patent US8927500B2, “Peptidomimetic macrocycles” (Aileron Therapeutics, Inc., priority 2012, dated 2015):
Read-outs that look alike come from different tables or passages of the source.

What was measured:
MDM2 = MDM2 (Homo sapiens, UniProt Q00987); assay: Competitive fluorescence polarization assay for MDM2; format: binding; conditions: competitive FP assay, MDM2
MDMX = molecular target: T1, MDMX (Homo sapiens, UniProt O15151); assay: Competitive fluorescence polarization assay for MDMX; format: binding; conditions: competitive FP assay
T1 sequence (O15151 1-125): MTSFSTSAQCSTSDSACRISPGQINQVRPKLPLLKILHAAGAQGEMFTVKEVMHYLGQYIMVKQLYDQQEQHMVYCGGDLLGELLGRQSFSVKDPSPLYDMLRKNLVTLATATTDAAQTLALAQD

MDM2, sequence (Q00987 1-125): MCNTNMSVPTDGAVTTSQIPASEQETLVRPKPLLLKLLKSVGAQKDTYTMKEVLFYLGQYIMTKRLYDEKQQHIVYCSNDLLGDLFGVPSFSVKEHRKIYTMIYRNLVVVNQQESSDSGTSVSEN

SMILES | IC50 (MDM2; read-out: IC50 (MDM2)) [nM] | Ki (MDM2; read-out: Ki (MDM2)) [nM] | IC50 (MDMX; read-out: IC50 (MDMX)) [nM] | Ki (MDMX; read-out: Ki (MDMX)) [nM] | IC50 (MDM2; IC50 (MDM2)) [nM] | Ki (MDM2; Ki (MDM2)) [nM] | IC50 (MDMX; IC50 (MDMX)) [nM] | Ki (MDMX; Ki (MDMX)) [nM]
CCCC[C@H](NC(=O)[C@H](C)NC(=O)[C@H](C)NC(=O)[C@]1(C)CCCC=CCCCCCC[C@@](C)(NC(=O)[C@H](Cc2ccccc2)NC(=O)[C@@H](NC(=O)[C@H](CC(C)C)NC(C)=O)[C@@H](C)O)C(=O)N[C@@H](C)C(=O)N[C@@H](Cc2ccc(O)cc2)C(=O)N[C@@H](Cc2c[nH]c3ccccc23)C(=O)N[C@@H](C)C(=O)N[C@@H](CCC(N)=O)C(=O)N[C@@H](CC(C)C)C(=O)N1)C(=O)N[C@H](CC(C)C)C(N)=O (single isomer, unassigned) [compound 85] | 10 to 100 | < 10 | 100 to 1000 | 10 to 100 | – | – | – | –
CC(=O)N[C@@H](CC(C)C)C(=O)N[C@H](C(=O)N[C@@H](Cc1ccccc1)C(=O)N[C@]1(C)CCCCCCC=CCCC[C@@](C)(C(=O)N[C@@H](CO)C(=O)N[C@H](C(=O)NCC(N)=O)C(C)C)NC(=O)[C@H](CC(C)C)NC(=O)[C@H](CCC(N)=O)NC(=O)[C@H](C)NC(=O)[C@H](Cc2c[nH]c3ccccc23)NC(=O)[C@H](Cc2ccc(O)cc2)NC(=O)[C@H](C(C)C)NC1=O)[C@@H](C)O (single isomer, unassigned) [compound 146] | < 10 | < 10 | 100 to 1000 | 10 to 100 | – | – | – | –
CC(=O)N[C@@H](CC(C)C)C(=O)N[C@H](C(=O)N[C@@H](Cc1cccc(Cl)c1)C(=O)N[C@]1(C)CCCCCCC=CCCC[C@@](C)(C(=O)N[C@@H](CO)C(=O)N[C@@H](C)C(=O)N[C@@H](C)C(N)=O)NC(=O)[C@H](CC(C)C)NC(=O)[C@H](CCC(N)=O)NC(=O)[C@H](C)NC(=O)[C@H](Cc2c[nH]c3ccccc23)NC(=O)[C@H](Cc2ccc(O)cc2)NC(=O)[C@H](CCC(=O)O)NC1=O)[C@@H](C)O (single isomer, unassigned) [compound 156] | < 10 | < 10 | 100 to 1000 | 10 to 100 | – | – | – | –
CC(=O)N[C@@H](CC(C)C)C(=O)N[C@H](C(=O)N[C@@H](Cc1ccccc1)C(=O)N[C@]1(C)CCCCCCC=CCCC[C@@](C)(C(=O)N[C@@H](CO)C(=O)N[C@@H](C)C(=O)N[C@@H](C)C(N)=O)NC(=O)[C@H](CC(C)C)NC(=O)[C@H](CCC(N)=O)NC(=O)[C@H](C)NC(=O)[C@H](Cc2c[nH]c3ccccc23)NC(=O)[C@H](CCC(=O)O)NC(=O)[C@H](C)NC1=O)[C@@H](C)O (single isomer, unassigned) [compound 166] | < 10 | < 10 | 100 to 1000 | 10 to 100 | – | – | – | –
CC(=O)N[C@@H](CC(C)C)C(=O)N[C@H](C(=O)N[C@@H](Cc1ccccc1)C(=O)N[C@]1(C)CCCCCCC=CCCC[C@@](C)(C(=O)N[C@@H](CO)C(=O)N[C@@H](C)C(=O)N[C@@H](C)C(N)=O)NC(=O)[C@H](CC(C)C)NC(=O)[C@H](CCC(N)=O)NC(=O)[C@H](C)NC(=O)[C@H](Cc2c[nH]c3ccccc23)NC(=O)[C@H](CO)NC(=O)[C@H](C)NC1=O)[C@@H](C)O (single isomer, unassigned) [compound 167] | 10 to 100 | < 10 | 100 to 1000 | 100 to 1000 | – | – | – | –
CC[C@H](C)[C@H](NC(C)=O)C(=O)N[C@H](C(=O)N[C@@H](Cc1ccccc1)C(=O)N[C@]1(C)CCCCCCC=CCCC[C@@](C)(C(=O)N[C@@H](C)C(=O)N[C@@H](C)C(=O)N[C@H](C(=O)N[C@H](C)C(N)=O)[C@@H](C)CC)NC(=O)[C@H](CC(C)C)NC(=O)[C@H](CCC(N)=O)NC(=O)[C@H](C)NC(=O)[C@H](Cc2c[nH]c3ccccc23)NC(=O)[C@H](Cc2c[nH]cn2)NC(=O)[C@H](CCC(=O)O)NC1=O)[C@@H](C)O (single isomer, unassigned) [compound 173] | < 10 | < 10 | 100 to 1000 | 10 to 100 | – | – | – | –
CC[C@H](C)[C@H](NC(C)=O)C(=O)N[C@H](C(=O)N[C@@H](Cc1ccccc1)C(=O)N[C@]1(C)CCCCCCC=CCCC[C@@](C)(C(=O)N[C@@H](C)C(=O)N[C@@H](Cc2c[nH]cn2)C(=O)N[C@@H](Cc2ccccc2)C(=O)N[C@@H](C)C(N)=O)NC(=O)[C@H](CC(C)C)NC(=O)[C@H](CCC(N)=O)NC(=O)[C@H](C)NC(=O)[C@H](Cc2c[nH]c3ccccc23)NC(=O)[C@H](Cc2ccc(O)cc2)NC(=O)[C@H](Cc2ccccc2)NC1=O)[C@@H](C)O (single isomer, unassigned) [compound 185] | 10 to 100 | < 10 | > 1000 | 100 to 1000 | – | – | – | –
CC[C@H](C)[C@H](NC(C)=O)C(=O)N[C@H](C(=O)N[C@@H](Cc1ccccc1)C(=O)N[C@]1(C)CCCCCCC=CCCC[C@@](C)(C(=O)N[C@@H](C)C(=O)N[C@@H](Cc2c[nH]cn2)C(=O)N[C@@H](Cc2ccccc2)C(=O)N[C@@H](C)C(N)=O)NC(=O)[C@H](CC(C)C)NC(=O)[C@H](CCC(N)=O)NC(=O)[C@H](C)NC(=O)[C@H](Cc2c[nH]c3ccccc23)NC(=O)[C@H](Cc2c[nH]cn2)NC(=O)[C@H](CCC(=O)O)NC1=O)[C@@H](C)O (single isomer, unassigned) [compound 189] | 10 to 100 | < 10 | 100 to 1000 | 10 to 100 | – | – | – | –
CC[C@H](C)[C@H](NC(C)=O)C(=O)N[C@H](C(=O)N[C@@H](Cc1ccccc1)C(=O)N[C@]1(C)CCCCCCC=CCCC[C@@](C)(C(=O)N[C@@H](C)C(=O)N[C@@H](Cc2c[nH]cn2)C(=O)N[C@@H](Cc2ccccc2)C(=O)N[C@@H](C)C(N)=O)NC(=O)[C@H](CC(C)C)NC(=O)[C@H](CCC(N)=O)NC(=O)[C@H](C(C)C)NC(=O)[C@H](Cc2c[nH]c3ccccc23)NC(=O)[C@H](Cc2c[nH]cn2)NC(=O)[C@H](CCC(=O)O)NC1=O)[C@@H](C)O (single isomer, unassigned) [compound 194] | 10 to 100 | < 10 | 100 to 1000 | 100 to 1000 | – | – | – | –
CC(=O)N[C@@H](CC(C)C)C(=O)N[C@H](C(=O)N[C@@H](Cc1ccccc1)C(=O)N[C@]1(C)CCCCCCC=CCCC[C@@](C)(C(=O)N[C@@H](CO)C(=O)N[C@@H](C)C(=O)N[C@@H](C)C(N)=O)NC(=O)[C@H](CC(C)C)NC(=O)[C@H](C)NC(=O)[C@H](C)NC(=O)[C@H](Cc2c[nH]c3ccccc23)NC(=O)[C@H](CCC(=O)O)NC(=O)[C@H](C)NC1=O)[C@@H](C)O (single isomer, unassigned) [compound 199] | – | – | – | – | 10 to 100 | < 10 | 100 to 1000 | 100 to 1000
CC(=O)N[C@@H](CC(C)C)C(=O)N[C@H](C(=O)N[C@@H](Cc1ccccc1)C(=O)N[C@]1(C)CCCCCCC=CCCC[C@@](C)(C(=O)N[C@@H](CO)C(=O)N[C@@H](C)C(=O)N[C@@H](C)C(N)=O)NC(=O)[C@H](CC(C)C)NC(=O)[C@H](C)NC(=O)[C@H](C)NC(=O)[C@H](Cc2c[nH]c3ccccc23)NC(=O)[C@H](CO)NC(=O)[C@H](C)NC1=O)[C@@H](C)O (single isomer, unassigned) [compound 201] | 10 to 100 | < 10 | 100 to 1000 | 100 to 1000 | – | – | – | –
CC[C@H](C)[C@H](NC(=O)[C@H](Cc1c[nH]cn1)NC(=O)[C@H](C)NC(=O)[C@]1(C)CCCC=CCCCCCC[C@@](C)(NC(=O)[C@H](Cc2ccccc2)NC(=O)[C@@H](NC(=O)[C@H](CC(C)C)NC(C)=O)[C@@H](C)O)C(=O)N[C@@H](CCC(=O)O)C(=O)N[C@@H](Cc2c[nH]cn2)C(=O)N[C@@H](Cc2c[nH]c3ccccc23)C(=O)N[C@@H](C)C(=O)N[C@@H](CCC(N)=O)C(=O)N[C@@H](CC(C)C)C(=O)N1)C(=O)N[C@H](C)C(N)=O (single isomer, unassigned) [compound 206] | 10 to 100 | < 10 | 100 to 1000 | 10 to 100 | – | – | – | –
CC(=O)N[C@@H](CC(C)C)C(=O)N[C@H](C(=O)N[C@@H](Cc1ccccc1)C(=O)N[C@]1(C)CCCCCCC=CCCC[C@@](C)(C(=O)N[C@@H](C)C(=O)N[C@@H](C)C(=O)N[C@@H](Cc2ccccc2)C(=O)N[C@H](C)C(N)=O)NC(=O)[C@H](CC(C)C)NC(=O)[C@H](CCC(N)=O)NC(=O)[C@H](C)NC(=O)[C@H](Cc2c[nH]c3ccccc23)NC(=O)[C@H](Cc2ccc(O)cc2)NC(=O)[C@H](C)NC1=O)[C@@H](C)O (single isomer, unassigned) [compound 210] | < 10 | < 10 | 100 to 1000 | 10 to 100 | – | – | – | –
CC(=O)N[C@@H](CC(C)C)C(=O)N[C@H](C(=O)N[C@@H](Cc1ccccc1)C(=O)N[C@]1(C)CCCCCCC=CCCC[C@@](C)(C(=O)N[C@@H](C)C(=O)N[C@@H](C)C(=O)N[C@H](C(=O)N[C@H](C)C(N)=O)C(C)C)NC(=O)[C@H](CC(C)C)NC(=O)[C@H](CCC(N)=O)NC(=O)[C@H](C)NC(=O)[C@H](Cc2c[nH]c3ccccc23)NC(=O)[C@H](Cc2ccc(O)cc2)NC(=O)[C@H](C)NC1=O)[C@@H](C)O (single isomer, unassigned) [compound 213] | < 10 | < 10 | 100 to 1000 | 10 to 100 | – | – | – | –
CC(=O)N[C@@H](CC(C)C)C(=O)N[C@H](C(=O)N[C@@H](Cc1ccccc1)C(=O)N[C@]1(C)CCCCCCC=CCCC[C@@](C)(C(=O)N[C@@H](C)C(=O)N[C@@H](C)C(=O)N[C@@H](CC(C)C)C(=O)N[C@H](C)C(N)=O)NC(=O)[C@H](CC(C)C)NC(=O)[C@H](CCC(N)=O)NC(=O)[C@H](C)NC(=O)[C@H](Cc2c[nH]c3ccccc23)NC(=O)[C@H](Cc2ccc(O)cc2)NC(=O)[C@H](C)NC1=O)[C@@H](C)O (single isomer, unassigned) [compound 215] | 10 to 100 | < 10 | 100 to 1000 | 10 to 100 | – | – | – | –
